Assay type in all cases: biochemical
One experiment addresses JAK1-JH1JH2 (Homo sapiens (Human), UniProt P23458). The experiment is described as follows: Enzymatic inhibition assay (RapidFire HTMS), JAK1. The following applies: 12.5 μM ATP, 200 μM substrate; read-out: JAK1-JH2JH1 IC50. Put shortly:
(§1)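 Quenched with 0.5% TFA plus internal-standard peptide; phosphorylated product quantified by RapidFire C4 SPE–ESI-MS, 11-point 1:3 or 1:4 dilutions in duplicate.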

For a further experiment, the target named is JAK2-JH1JH2 (Homo sapiens (Human), UniProt O60674). The experiment can be described thus: Enzymatic inhibition assay (RapidFire HTMS), JAK2. To be noted: 30 μM ATP, 40 μM substrate. Put shortly:
as §1

In a further experiment the target is Tyk2-JH1JH2 (Homo sapiens (Human), UniProt P29597, C1142A/C936A). The experiment can be described thus: Enzymatic inhibition assay (RapidFire HTMS), Tyk2. The following applies: 50 μM ATP, 200 μM substrate. The procedure, abridged: as §1
Tyk2-JH1JH2, sequence (P29597 580-1182 C936A/C1142A): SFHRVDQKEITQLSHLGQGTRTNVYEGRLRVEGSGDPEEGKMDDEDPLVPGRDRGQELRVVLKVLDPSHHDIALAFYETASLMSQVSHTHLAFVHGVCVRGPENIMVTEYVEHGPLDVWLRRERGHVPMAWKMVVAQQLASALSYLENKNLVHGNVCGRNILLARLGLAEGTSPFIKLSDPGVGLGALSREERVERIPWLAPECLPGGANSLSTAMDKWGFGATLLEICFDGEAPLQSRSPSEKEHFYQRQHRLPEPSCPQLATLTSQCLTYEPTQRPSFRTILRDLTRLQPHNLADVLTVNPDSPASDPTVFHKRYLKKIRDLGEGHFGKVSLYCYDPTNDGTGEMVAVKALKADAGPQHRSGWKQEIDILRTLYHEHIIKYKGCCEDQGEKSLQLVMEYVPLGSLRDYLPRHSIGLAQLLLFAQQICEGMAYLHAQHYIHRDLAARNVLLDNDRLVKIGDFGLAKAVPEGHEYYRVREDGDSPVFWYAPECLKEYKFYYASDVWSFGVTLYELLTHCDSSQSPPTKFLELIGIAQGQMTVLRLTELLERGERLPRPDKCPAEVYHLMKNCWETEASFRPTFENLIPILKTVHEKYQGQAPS
The next experiment has as its target JAK3-JH1JH2 (Homo sapiens (Human), UniProt P52333). The experiment can be described thus: Enzymatic inhibition assay (RapidFire HTMS), JAK3. The following applies: 150 μM ATP, 40 μM substrate. Put shortly: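 JAK3 JH1JH2 reaction incubated 45 min at 25 °C, then quenched with 0.5% TFA containing 0.15 μM internal standard peptide. Phosphopeptide product measured by RapidFire C4 SPE–ESI MS (positive mode); inhibition from product decrease versus uninhibited enzyme, 11-point 1:3 or 1:4 dilutions in duplicate.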

Our source for the IC50 values is patent US10981911B2, “Imidazopyrrolopyridine as inhibitors of the JAK family of kinases” (Janssen Pharmaceutica NV, priority 2016, dated 2021).

JAK1-JH1JH2, sequence (P23458 574-1154): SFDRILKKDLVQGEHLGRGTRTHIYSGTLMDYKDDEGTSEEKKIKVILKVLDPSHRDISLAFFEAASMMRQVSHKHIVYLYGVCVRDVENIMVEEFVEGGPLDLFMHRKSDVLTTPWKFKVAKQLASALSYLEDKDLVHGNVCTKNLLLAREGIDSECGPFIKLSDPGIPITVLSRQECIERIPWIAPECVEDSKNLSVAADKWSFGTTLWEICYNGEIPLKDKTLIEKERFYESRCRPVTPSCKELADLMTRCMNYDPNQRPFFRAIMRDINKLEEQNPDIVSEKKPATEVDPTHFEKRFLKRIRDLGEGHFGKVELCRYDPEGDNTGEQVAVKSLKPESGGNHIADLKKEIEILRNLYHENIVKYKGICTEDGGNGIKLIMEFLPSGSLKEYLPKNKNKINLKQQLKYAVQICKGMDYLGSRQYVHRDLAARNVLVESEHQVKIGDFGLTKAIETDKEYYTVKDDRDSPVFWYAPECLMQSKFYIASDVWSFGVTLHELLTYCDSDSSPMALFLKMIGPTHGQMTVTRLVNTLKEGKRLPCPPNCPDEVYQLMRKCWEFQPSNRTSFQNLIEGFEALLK
JAK2-JH1JH2, sequence (O60674 532-1132): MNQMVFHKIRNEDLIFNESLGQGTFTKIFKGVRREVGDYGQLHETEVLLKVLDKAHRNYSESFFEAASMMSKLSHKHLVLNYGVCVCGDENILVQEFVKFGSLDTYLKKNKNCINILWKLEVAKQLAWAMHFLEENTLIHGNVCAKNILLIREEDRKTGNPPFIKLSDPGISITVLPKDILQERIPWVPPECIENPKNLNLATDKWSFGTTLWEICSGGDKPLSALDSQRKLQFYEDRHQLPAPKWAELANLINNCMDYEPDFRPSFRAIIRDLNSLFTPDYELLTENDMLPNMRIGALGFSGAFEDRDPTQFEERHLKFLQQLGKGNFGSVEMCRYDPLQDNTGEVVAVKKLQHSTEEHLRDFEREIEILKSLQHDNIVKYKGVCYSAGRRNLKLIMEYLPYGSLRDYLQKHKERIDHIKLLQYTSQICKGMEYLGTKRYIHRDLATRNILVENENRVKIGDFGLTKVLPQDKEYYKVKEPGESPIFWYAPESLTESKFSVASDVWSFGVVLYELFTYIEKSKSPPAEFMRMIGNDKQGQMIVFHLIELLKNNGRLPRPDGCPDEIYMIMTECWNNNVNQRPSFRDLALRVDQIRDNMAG
JAK3-JH1JH2, sequence (P52333 512-1124): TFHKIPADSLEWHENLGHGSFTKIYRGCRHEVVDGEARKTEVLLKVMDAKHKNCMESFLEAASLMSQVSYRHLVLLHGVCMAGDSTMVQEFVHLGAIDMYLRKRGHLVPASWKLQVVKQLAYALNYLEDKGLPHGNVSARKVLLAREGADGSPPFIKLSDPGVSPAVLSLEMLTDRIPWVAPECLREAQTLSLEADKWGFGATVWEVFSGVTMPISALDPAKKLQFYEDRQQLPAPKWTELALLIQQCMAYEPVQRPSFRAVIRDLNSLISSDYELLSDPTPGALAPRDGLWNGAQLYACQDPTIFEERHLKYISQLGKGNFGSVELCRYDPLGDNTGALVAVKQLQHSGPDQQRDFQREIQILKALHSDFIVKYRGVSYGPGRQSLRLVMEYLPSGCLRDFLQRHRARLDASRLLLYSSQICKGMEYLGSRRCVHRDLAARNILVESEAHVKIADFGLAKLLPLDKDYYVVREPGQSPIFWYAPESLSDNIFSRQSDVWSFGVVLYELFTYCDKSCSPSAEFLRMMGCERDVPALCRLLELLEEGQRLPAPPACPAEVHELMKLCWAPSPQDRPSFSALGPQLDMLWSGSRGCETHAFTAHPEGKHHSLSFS

Regarding `N#CC[C@H]1CC[C@H](n2c(-c3ncc[nH]3)nc3cnc4[nH]ccc4c32)CC1` [Ex. 56, 2-((1r,4r)-4-(2-(1H-Imidazol-2-yl)imidazo[4,5-d]pyrrolo[2,3-b]pyridin-1(6H)-yl)cyclohexyl)acetonitrile], the IC50 at JAK1-JH1JH2 came out at 0.2 nM; against JAK2-JH1JH2 it was 1.9 nM; on Tyk2-JH1JH2, 7.2 nM; at JAK3-JH1JH2, 32.9 nM.
Take `N#CC[C@H]1CC[C@H](n2c(CC(=O)NCC(F)(F)F)nc3cnc4[nH]ccc4c32)CC1` [Ex. 57, 2-(1-((1r,4r)-4-(Cyanomethyl)cyclohexyl)-1,6-dihydroimidazo[4,5-d]pyrrolo[2,3-b]pyridin-2-yl)-N-(2,2,2-trifluoroethyl)acetamide]: the IC50 was determined as 0.2 nM at JAK1-JH1JH2, 5.6 nM at JAK2-JH1JH2, 3.4 nM at Tyk2-JH1JH2 and 69.5 nM at JAK3-JH1JH2.
The like results for `N#CC[C@H]1CC[C@H](n2c(CC(=O)NC34CCC(C(N)=O)(CC3)CC4)nc3cnc4[nH]ccc4c32)CC1` [Ex. 58, 4-(2-(1-((1r,4r)-4-(Cyanomethyl)cyclohexyl)-1,6-dihydroimidazo[4,5-d]pyrrolo[2,3-b]pyridin-2-yl)acetamido)bicyclo[2.2.2]octane-1-carboxamide] were, in that order, 0.3 nM, 1.4 nM, 3.3 nM and 31.4 nM.
On to `CC(C)(O)CCNC(=O)Cc1nc2cnc3[nH]ccc3c2n1[C@H]1CC[C@H](CC#N)CC1` [Ex. 59, 2-(1-((1r,4r)-4-(Cyanomethyl)cyclohexyl)-1,6-dihydroimidazo[4,5-d]pyrrolo[2,3-b]pyridin-2-yl)-N-(3-hydroxy-3-methylbutyl)acetamide], for which the IC50 at JAK1-JH1JH2 was 0.3 nM; against JAK2-JH1JH2 it was 6.7 nM; at Tyk2-JH1JH2, 7.2 nM; at JAK3-JH1JH2, 122 nM.
For `N#CC[C@H]1CC[C@H](n2c(-c3cc[nH]n3)nc3cnc4[nH]ccc4c32)CC1` [Ex. 60, 2-((1r,4r)-4-(2-(1H-Pyrazol-3-yl)imidazo[4,5-d]pyrrolo[2,3-b]pyridin-1(6H)-yl)cyclohexyl)acetonitrile] the same measures were 0.3 nM, 1.7 nM, 3.4 nM and 72 nM.
The like results for `CC(C)/C(=N/O)NCc1nc2cnc3[nH]ccc3c2n1[C@H]1CC[C@H](CC#N)CC1` [Ex. 61, (EZ)—N-((1-((1r,4r)-4-(cyanomethyl)cyclohexyl)-1,6-dihydroimidazo[4,5-d]pyrrolo[2,3-b]pyridin-2-yl)methyl)-N-hydroxyisobutyrimidamide] were, in that order, 0.3 nM, 25.7 nM, 6.3 nM and 219 nM.
With `CC(C)CN1CCC(NC(=O)Cc2nc3cnc4[nH]ccc4c3n2[C@H]2CC[C@H](CC#N)CC2)CC1` [Ex. 62, 2-(1-((1r,4r)-4-(Cyanomethyl)cyclohexyl)-1,6-dihydroimidazo[4,5-d]pyrrolo[2,3-b]pyridin-2-yl)-N-(1-isobutylpiperidin-4-yl)acetamide], the IC50 amounted to 0.3 nM at JAK1-JH1JH2, 2.1 nM against JAK2-JH1JH2, 2.6 nM against Tyk2-JH1JH2 and 30.6 nM on JAK3-JH1JH2.
`N#CC[C@H]1CC[C@H](n2c(-c3nn[nH]n3)nc3cnc4[nH]ccc4c32)CC1` [Ex. 63, 2-((1r,4r)-4-(2-(2H-Tetrazol-5-yl)imidazo[4,5-d]pyrrolo[2,3-b]pyridin-1(6H)-yl)cyclohexyl)acetonitrile]: the IC50 at JAK1-JH1JH2 was 0.3 nM; against JAK2-JH1JH2 it was 2.2 nM; at Tyk2-JH1JH2, 19.1 nM; against JAK3-JH1JH2 it was 57.3 nM.
For `N#CC[C@H]1CC[C@H](n2c(CC(=O)Nc3cn[nH]c3)nc3cnc4[nH]ccc4c32)CC1` [Ex. 64, 2-(1-((1r,4r)-4-(Cyanomethyl)cyclohexyl)-1,6-dihydroimidazo[4,5-d]pyrrolo[2,3-b]pyridin-2-yl)-N-(1H-pyrazol-4-yl)acetamide] the same measures were 0.3 nM, 5.6 nM, 5.7 nM and 51.4 nM.
The like results for `CC1(C)CCC(NC(=O)Cc2nc3cnc4[nH]ccc4c3n2[C@H]2CC[C@H](CC#N)CC2)CC1` [Ex. 65, 2-(1-((1r,4r)-4-(Cyanomethyl)cyclohexyl)-1,6-dihydroimidazo[4,5-d]pyrrolo[2,3-b]pyridin-2-yl)-N-(4,4-dimethylcyclohexyl)acetamide] were, in that order, 0.3 nM, 7 nM, 11.7 nM and 81.5 nM.
For `CN1CCC(NC(=O)Cc2nc3cnc4[nH]ccc4c3n2[C@H]2CC[C@H](CC#N)CC2)CC1` [Ex. 66, 2-(1-((1r,4r)-4-(Cyanomethyl)cyclohexyl)-1,6-dihydroimidazo[4,5-d]pyrrolo[2,3-b]pyridin-2-yl)-N-(1-methylpiperidin-4-yl)acetamide] the same measures were 0.3 nM, 2.5 nM, 2.8 nM and 18.9 nM.
As for `N#CC[C@H]1CC[C@H](n2c(CC(=O)N3CCS(=O)(=O)CC3)nc3cnc4[nH]ccc4c32)CC1` [Ex. 67, 2-((1r,4r)-4-(2-(2-(1,1-Dioxidothiomorpholino)-2-oxoethyl)imidazo[4,5-d]pyrrolo[2,3-b]pyridin-1(6H)-yl)cyclohexyl)acetonitrile], the IC50 worked out at 0.3 nM on JAK1-JH1JH2, 12.3 nM at JAK2-JH1JH2, 3.8 nM on Tyk2-JH1JH2 and 121 nM against JAK3-JH1JH2.
For `N#CC[C@H]1CC[C@H](n2c(CC(=O)NCc3ccc(CO)cc3)nc3cnc4[nH]ccc4c32)CC1` [Ex. 68, 2-(1-((1r,4r)-4-(Cyanomethyl)cyclohexyl)-1,6-dihydroimidazo[4,5-d]pyrrolo[2,3-b]pyridin-2-yl)-N-(4-(hydroxymethyl)benzyl)acetamide] the same measures were 0.3 nM, 8.2 nM, 13.3 nM and 180 nM.
For `COC(C)(C)CNC(=O)Cc1nc2cnc3[nH]ccc3c2n1[C@H]1CC[C@H](CC#N)CC1` [Ex. 71, 2-(1-((1r,4r)-4-(Cyanomethyl)cyclohexyl)-1,6-dihydroimidazo[4,5-d]pyrrolo[2,3-b]pyridin-2-yl)-N-(2-methoxy-2-methylpropyl)acetamide] the same measures were 0.2 nM, 3.4 nM, 3.3 nM and 54.2 nM.
Take `COCC/C(N)=N/OCc1nc2cnc3[nH]ccc3c2n1[C@H]1CC[C@H](CC#N)CC1` [Ex. 72, (Z*)—N-((1-((1r,4r)-4-(Cyanomethyl)cyclohexyl)-1,6-dihydroimidazo[4,5-d]pyrrolo[2,3-b]pyridin-2-yl)methoxy)-3-methoxypropanimidamide]: the IC50 came to 0.4 nM at JAK1-JH1JH2, 5.2 nM against JAK2-JH1JH2, 27.2 nM on Tyk2-JH1JH2 and 181 nM against JAK3-JH1JH2.
Consider `N#CC[C@H]1CC[C@H](n2c(CC(=O)N3CCC(CO)CC3)nc3cnc4[nH]ccc4c32)CC1` [Ex. 73, 2-((1r,4r)-4-(2-(2-(4-(Hydroxymethyl)piperidin-1-yl)-2-oxoethyl)imidazo[4,5-d]pyrrolo[2,3-b]pyridin-1(6H)-yl)cyclohexyl)acetonitrile], for which the IC50 at JAK1-JH1JH2 came to 0.4 nM; against JAK2-JH1JH2, 19.9 nM; against Tyk2-JH1JH2 it was 6.3 nM; against JAK3-JH1JH2, 199 nM.
As for `CC1CC(C)CC(NC(=O)Cc2nc3cnc4[nH]ccc4c3n2[C@H]2CC[C@H](CC#N)CC2)C1` (stereo partly drawn) [Ex. 75, 2-(1-((1r,4r)-4-(Cyanomethyl)cyclohexyl)-1,6-dihydroimidazo[4,5-d]pyrrolo[2,3-b]pyridin-2-yl)-N-(3,5-dimethylcyclohexyl)acetamide], the IC50 on JAK1-JH1JH2 worked out at 0.4 nM; against JAK2-JH1JH2, 3.4 nM; on Tyk2-JH1JH2, 9.2 nM; against JAK3-JH1JH2, 62.3 nM.
Consider `N#CC[C@H]1CC[C@H](n2c(C3CCN(c4ccc(C#N)cc4)CC3)nc3cnc4[nH]ccc4c32)CC1` [Ex. 76, 4-(4-(1-((1r,4r)-4-(Cyanomethyl)cyclohexyl)-1,6-dihydroimidazo[4,5-d]pyrrolo[2,3-b]pyridin-2-yl)piperidin-1-yl)benzonitrile], for which the IC50 on JAK1-JH1JH2 stood at 0.4 nM; on JAK2-JH1JH2, 23.6 nM; against Tyk2-JH1JH2, 16.8 nM; against JAK3-JH1JH2, 1210 nM.
For `N#CC[C@H]1CC[C@H](n2c(CNS(=O)(=O)c3ccccc3)nc3cnc4[nH]ccc4c32)CC1` [Ex. 77, N-((1-((1r,4r)-4-(Cyanomethyl)cyclohexyl)-1,6-dihydroimidazo[4,5-d]pyrrolo[2,3-b]pyridin-2-yl)methyl)benzenesulfonamide] the same measures were 0.4 nM, 39.4 nM, 22.3 nM and 1910 nM.
For `N#CC[C@H]1CC[C@H](n2c(CC(=O)NC3CC4CCC3C4)nc3cnc4[nH]ccc4c32)CC1` (stereo partly drawn) [Ex. 78, N-((1S,4R)-Bicyclo[2.2.1]heptan-2-yl)-2-(1-((1r,4r)-4-(cyanomethyl)cyclohexyl)-1,6-dihydroimidazo[4,5-d]pyrrolo[2,3-b]pyridin-2-yl)acetamide] the same measures were 0.4 nM, 11.2 nM, 13.4 nM and 69.4 nM.
The like results for `N#CC[C@H]1CC[C@H](n2c(CC(=O)NCc3ccc(OC(F)F)cc3)nc3cnc4[nH]ccc4c32)CC1` [Ex. 79, 2-(1-((1r,4r)-4-(cyanomethyl)cyclohexyl)-1,6-dihydroimidazo[4,5-d]pyrrolo[2,3-b]pyridin-2-yl)-N-(4-(difluoromethoxy)benzyl)acetamide] were, in that order, 0.4 nM, 10.6 nM, 13.3 nM and 223 nM.
